Measurements as given in patent publication US11654193B2, “Cancer treatment combinations” (The Regents of the University of California, priority 2016, dated 2023).
“Also recorded” adds a separate entry of the source. Like-named read-outs stand apart in the source and are kept apart here.

How the values were obtained:
[1] = tested on: cell lines or chronic lymphocytic leukemia samples; settings: cited from earlier work
[2] = tested on: natural killer cells, macrophages or neutrophils; settings: cited from earlier work; for cell-mediated mechanisms induced by anti-CD20 antibodies rituximab, ofatumumab or obinutuzumab: purified systems or whole blood assays
[3] = tested on: ROR-1×TCL1 leukemia cells; test: ROR-1×TCL1 leukemia adoptive transfer in immunodeficient Rag2-/-γc-/- mice; assay type: in vivo; settings: day 25; for numbers of splenic ROR-1×TCL1 leukemia cells, dose dependence: ibrutinib daily 15, 5, 1.67 mg/kg or single dose UC-961/cirmtuzumab 10, 3, 1 mg/kg
Description: ROR-1×TCL1 leukemia adoptive transfer study. […] ROR-1×TCL1 leukemia B cells (CD5B220^lowROR-1^+) were isolated from the spleen, enriched via density gradient centrifugation, suspended in sterile PBS, injected i.v. into Rag2^−/−γc^−/− recipient mice at 2×10^4 cells per animal. Samples used for transplantation were verified by flow cytometry to be >95% leukemia B cells. For dose dependent therapy of UC-961, recipient mice received either no treatment, or one dose i.v. injections of 10 mg/kg, 3 mg/kg and 1 mg/kg of UC-961 on day 1. […] All mice were sacrificed on day 25 and single-cell suspensions of splenocytes were purged of red blood cells by hypotonic lysis in ammonium-chloride-potassium (ACK) lysis solution, washed, suspended in 2% (wt/vol) BSA (Sigma) in PBS (pH=7.4) and stained for surface expression of CD3 (17A2), CD5 (53-7.3), B220 (RA3-6B2), and ROR-1 (4A5) using optimized concentrations of fluorochrome-conjugated mAbs. Cells were examined by four-color, multiparameter flow cytometry using a dual-laser FACSCalibur (BD) and the data were analyzed using FlowJo software (TreeStar). The total number of leukemia cells per spleen was calculated by determining the percent of CD5B220^lowROR-1^+ cells of total lymphocytes by flow cytometry and multiplying this number by the total spleen cell count.
(§1) ROR-1×TCL1 Leukemia Adoptive Transfer Study.

[4] = tested on: ROR-1×TCL1 leukemia cells; test: ROR-1×TCL1 leukemia adoptive transfer in immunocompetent ROR-1-Tg mice; assay type: in vivo; settings: cirmtuzumab 10 mg/kg weekly i.v. and/or ibrutinib 5 mg/kg daily via gavage, after 28 days
Text: as §1
After 28 days, the animals were sacrificed and the spleen of each animal was examined.

[5] = single dose UC-961/cirmtuzumab 1 mg/kg and/or ibrutinib 5 mg/kg daily

Compound	complement activation or complement-mediated lysis ([1]; pre-treatment with ibrutinib)	direct cell death mediated by anti-CD20 antibodies ([1]; pretreatment with ibrutinib for 1 hour)	cell-mediated mechanisms induced by anti-CD20 antibodies rituximab, ofatumumab or obinutuzumab [2]	cell-mediated mechanisms induced by anti-CD20 antibodies rituximab, ofatumumab or obinutuzumab ([2]; listed as Ibrutinib)	numbers of splenic ROR-1×TCL1 leukemia cells, dose dependence [3]	numbers of splenic ROR-1×TCL1 leukemia cells, dose dependence ([3]; listed as Ibrutinib)	percentage and total number of ROR-1×TCL1 leukemia cells per spleen [3, 5]	spleen size [3, 5]	mean proportion and leukemia cell number in the spleen [4]	spleen size [4]	effect on immune cell-mediated mechanisms induced by anti-CD20 antibodies ([2]; 10 μM, compared with ibrutinib at the same concentration)
C=CC(=O)N1CCC[C@@H](n2nc(-c3ccc(Oc4ccccc4)cc3)c3c(N)ncnc32)C1 [ibrutinib, 1-[(3R)-3-[4-Amino-3-(4-phenoxyphenyl)-1H-pyrazolo[3,4-d]pyrimidin-1-yl]piperidin-1-yl]prop-2-en-1-one]	did not inhibit complement activation or complement-mediated lysis	did not increase direct cell death	strongly inhibited all cell-mediated mechanisms	interfered with the activity of the CD20 antibodies	Dose-dependent inhibitory effect	inhibited the expansion of ROR-1×TCL1 leukemia cells in a dose-dependent manner; also recorded: reduced the numbers of splenic leukemia cells in a dose-dependent manner	significantly lower	significantly smaller spleens	significantly lower	significantly smaller spleens	
CC[C@H](Nc1ncnc2[nH]cnc12)c1nc2cccc(F)c2c(=O)n1-c1ccccc1 [idelalisib, 5-Fluoro-3-phenyl-2-[(15)-1-(7H-purin-6-ylamino)propyl]-4(3H)-quinazolinone]			similarly inhibits the immune cell-mediated mechanisms								weaker than those observed with ibrutinib
